This note sets out measurements from patent publication US5086074A, “1-aminomethyl-1,2,3,4-tetrahydronaphthalenes” (Abbott Laboratories, priority 1990, dated 1992).

What is called IC50 is the concentration at which inhibition is half-maximal. A word on the Ki: it is the dissociation constant of the complex between target and ligand, obtained from inhibition or displacement.

Where a name gives a salt, the structure may show the parent alone.

For the first assay, the system named is alpha-2-receptor. Nature of the assay: Radioligand binding, alpha-2 adrenoceptor, rat cerebral cortices, [3H]-rauwolscine. The note with it: ratio Ki alpha-1/Ki alpha-2. As to the method: (§1) The compounds were assessed for alpha-adrenergic receptor subtype selectivity by use of radioligand binding techniques as described previously (DeBernardis et.al. J. Med. Chem. 28, 1398 (1985)).
With `COc1ccc2c(c1)CCC2CN1CCC(c2cccc(F)c2)C1` (stereo not drawn) [Example 153, 5-Methoxy-1-(3-(m-fluorophenyl)pyrrolidino-1-methyl) indane hydrochloride], the “alpha-2 - Selectivity Ki alpha-1/Ki alpha-2” value stood at 7. The same measure, in the same setting: the value for `COc1cccc2c1CCCC2CN1CCC(c2cccs2)C1` (stereo not drawn) [Example 146, hydrochloride] was 35; that for `Fc1ccc2c(c1)CCCC2CN1CCC(c2cccs2)C1` (stereo not drawn) [Example 149, 6-Fluoro-1-(3-(2-thienyl)pyrrolidino-1-methyl) tetralin methanesulfonate] was 45; that for `CCOc1ccc2c(c1)CCCC2CN(C)CCc1cccc(N)c1` (stereo not drawn) [Example 69, 1-((N-Methylamino)methyl-N-(2-(m-aminophenyl)ethyl))6-ethoxy tetralin dihydrochloride] was 98.

With `COc1ccc2c(c1)CCCC2CN(C)CCC1CCCS1` (stereo not drawn) [Example 6h, 1-((N-methylamino)methyl-N-(2-(2-tetrahydrothienyl)ethyl)) 6-methoxy tetralin hydrochloride], the “alpha-2 - Selectivity Ki alpha-1/Ki alpha-2” value came out at 430. Same read-out and setting: to `COc1ccc2c(c1)CCCC2CN1CCC(c2ccccc2)C1` (stereo not drawn) [Example 121, 6-Methoxy-1-(3-phenylpyrrolidino-1-methyl) tetralin hydrochloride] belongs 95. Same read-out and setting: the value for `Fc1ccc2c(c1)CCCC2CN1CCC(c2ccccc2)C1` (stereo not drawn) [Example 148, 6-Fluoro-1-(3-phenylpyrrolidino-1-methyl) tetralin methanesulfonate] was 19. For “5-Methoxy-1-(3-phenylpyrrolidino-1-methyl) indane hydrochloride [Example 152]”, the “alpha-2 - Selectivity Ki alpha-1/Ki alpha-2” value turned out to be 11. Turning to `COc1ccc(C)c2c1CCCC2CN(C)CCc1cccs1` (stereo not drawn) [Example 36, 1-((N Methylamino)methyl-N-(2-(2-thienyl)ethyl))-5-methoxy-8-methyl tetralin hydrochloride], the “alpha-2 - Selectivity Ki alpha-1/Ki alpha-2” value is given as 95. The same measure, in the same setting: the value for `CN(c1ccc2c(c1)CCCC2CN1CCC(c2ccccc2)C1)S(C)(=O)=O` (stereo not drawn) [Example 193, 6-(N-methylmethylsulfonamido)-1-(3-phenylpyrrolidino-1methyl)tetralin hydrochloride] was 93.

For `CN(CCc1cccc(F)c1)CC1CCCc2c1ccc1c2OCCO1` (stereo not drawn) [Example 167, 1-((N-Methylamino)methyl-N-(2-m-fluorophenethyl))-5,6-ethylenedioxy tetralin methanesulfonate], the “alpha-2 - Selectivity Ki alpha-1/Ki alpha-2” value stood at 85. Same read-out and setting: to `CN(CCc1cccs1)CC1CCCc2c(Cl)cccc21` (stereo not drawn) [Example 129, 1-((N-Methylamino)methyl-N-(2-(2-thieny)ethyl))5-chloro tetralin hydrochloride] belongs 55.

For `Nc1ccc2c(c1)CCCC2CN1CCC(c2ccccc2)C1` (stereo not drawn) [Example 156, 6-Amino-1-(3-phenylpyrrolidino-1-methyl) tetralin dihydrochloride], the “alpha-2 - Selectivity Ki alpha-1/Ki alpha-2” value came out at 21. Same read-out and setting: the value for `COc1ccc2c(c1)CCC2CN1CCC(c2cccs2)C1` (stereo not drawn) [Example 151, 5-Methoxy-1-(3-(2-thienyl)pyrrolidino-1-methyl) indane hydrochloride] was 71; that for `c1ccc(C2CCN(CC3CCCc4c3ccc3c4OCO3)C2)cc1` (stereo not drawn) [Example 143a, 5,6-Methylenedioxy-1-(3-phenylpyrrolidino-1-methyl) tetralin methanesulfonate] was 43.

The subject of the next assay is intraocular pressure of rabbits. Kind of assay: Effects of topically administered compounds on intraocular pressure of rabbits. The conditions noted are these: 0.3% soln., topical to cornea, 5 minutes. It counts as in vivo, rabbit (New Zealand albino). As to the method:
The effect on intraocular pressure of the compounds of the invention can be determined in rabbits by using the following method.
a. Method The intraocular pressure lowering effects of the compounds were evaluated in unanesthetized, male albino, New Zealand rabbits weighing 2.0 to 2.5 kg. The rabbits were placed in Plas Labs restraining devices for the duration of the experiment. Intraocular pressure (IOP) was measured with a Bausch and Lomb Applamatic Tonometer and recorded as the average of three individual readings at each time point in the experiment. Baseline IOP values were established at three time points separated by 30 minutes. Each compound or vehicle was applied topically to the cornea in a volume of 0.1 ml to one eye in each six rabbits. The contralateral eye was untreated. IOP was recorded at 5, 15, 30, 60 and 90 minutes after dosing.
Take `CN(CCc1ccccc1)CC1CCCc2cc(O)ccc21` (stereo not drawn) [11 (HCl salt)]: the “% Change in Intraocular Pressure After Treatment Compared to Untreated Eye in Rabbits” value (from here on “% Change”) is recorded as -38%. On to `CN(CCc1cccc(F)c1)CC1CCCc2cc(O)ccc21` (stereo not drawn) [Example 10, 1-((N-Methylamino)methyl-N-(2-(m-fluorophenyl)ethyl))-6-hydroxy tetralin hydrochloride], for which the “% Change” value is reported as -45%.

Staying with this assay, now noted: 0.3% soln., topical to cornea, 15 minutes.
With `CN(CCc1ccccc1)CC1CCCc2cc(O)ccc21` (stereo not drawn) [11 (HCl salt)], the “% Change” value is on record as -55%. The same measure, in the same setting: the value for `CN(CCc1cccc(F)c1)CC1CCCc2cc(O)ccc21` (stereo not drawn) [Example 10, 1-((N-Methylamino)methyl-N-(2-(m-fluorophenyl)ethyl))-6-hydroxy tetralin hydrochloride] was -31%.

Still in this assay, the particulars now being: 0.3% soln., topical to cornea, 30 minutes.
In the case of `CN(CCc1ccccc1)CC1CCCc2cc(O)ccc21` (stereo not drawn) [11 (HCl salt)], the “% Change” value is recorded as -54%. The same measure, in the same setting: the value for `CN(CCc1cccc(F)c1)CC1CCCc2cc(O)ccc21` (stereo not drawn) [Example 10, 1-((N-Methylamino)methyl-N-(2-(m-fluorophenyl)ethyl))-6-hydroxy tetralin hydrochloride] was -25%.

Still in this assay, the particulars now being: 0.3% soln., topical to cornea, 60 minutes.
In the case of `CN(CCc1ccccc1)CC1CCCc2cc(O)ccc21` (stereo not drawn) [11 (HCl salt)], the “% Change” value is given as -44%. Still for that read-out and setting: the value for `CN(CCc1cccc(F)c1)CC1CCCc2cc(O)ccc21` (stereo not drawn) [Example 10, 1-((N-Methylamino)methyl-N-(2-(m-fluorophenyl)ethyl))-6-hydroxy tetralin hydrochloride] was -36%.

Still in this assay, the particulars now being: 0.3% soln., topical to cornea, 90 minutes.
Take `CN(CCc1ccccc1)CC1CCCc2cc(O)ccc21` (stereo not drawn) [11 (HCl salt)]: the “% Change” value is reported as -20%. The same measure, in the same setting: to `CN(CCc1cccc(F)c1)CC1CCCc2cc(O)ccc21` (stereo not drawn) [Example 10, 1-((N-Methylamino)methyl-N-(2-(m-fluorophenyl)ethyl))-6-hydroxy tetralin hydrochloride] belongs -23%.

The subject of the next assay is norepinephrine uptake. Kind of assay: Biogenic amine uptake inhibition in rat brain synaptosomes, norepinephrine. It is filed as biochemical, rat (Sprague-Dawley). The conditions noted are these: tritiated amine 0.1 μM, 37° C., 4 minutes; read-out: Biogenic Amine Uptake Inhibition IC50 Norephinephrine. As to the method:
(§2) The ability of compounds of the invention to inhibit biogenic amine uptake is determined as outlined below.
(§3) Sprague-Dawley derived rats of either sex, weighing about 180-250 g, were killed by decapitation. The brains were immediately removed, placed on a glass plate chilled over crushed ice and dissected according to a modification of the method of Glowinski and Iversen (J. Neurochem. 13, 655-669, 1966). First, the rhombencephalon was separated by transverse section and discarded. The remaining tissue was bisected by a midline sagittal cut. The hypothalamus was removed using the anterior and posterior reference points, respectively. The hippocampus was peeled away and discarded and the striata were exposed and removed. Frontal cortical tissue was dissected from remaining brain structures. […] The tissues were placed in a cold Potter-Elvehjem glass homogenizer with 5 (cortex) or 10 (hypothalamus) and 20 (striatum) volumes of ice-cold 0.32M sucrose, pH 7.0 and homogenized by hand. The homogenate was centrifuged at 2500 rpm in a GLC centrifuge for 10 minutes in a refrigerated room. The supernatant fraction containing the synaptosomes was decanted, mixed thoroughly, and kept on crushed ice for use in the uptake studies.
In the case of “8-Fluoro-5,6-methylenedioxy-1-(3-phenylpyrrolidino-1-methyl) tetralin hydrochloride [Example 160]”, the IC50 was 0.991 µM.

The next assay concerns serotonin uptake. Kind of assay: Biogenic amine uptake inhibition in rat brain synaptosomes, serotonin. It is filed as biochemical, rat (Sprague-Dawley). The note with it: tritiated amine 0.1 μM, 37° C., 4 minutes. As for the experimental part: as §2, §3
The compound “8-Fluoro-5,6-methylenedioxy-1-(3-phenylpyrrolidino-1-methyl) tetralin hydrochloride [Example 160]” had an IC50 of 1.84 µM.

In the next assay the test system is dopamine uptake. Kind of assay: Biogenic amine uptake inhibition in rat brain synaptosomes, dopamine. It counts as biochemical, rat (Sprague-Dawley). The conditions noted are these: tritiated amine 0.1 μM, 37° C., 4 minutes. As to the method:
as §2, §3
Compound “8-Fluoro-5,6-methylenedioxy-1-(3-phenylpyrrolidino-1-methyl) tetralin hydrochloride [Example 160]” showed an IC50 of 2.93 µM.

The target of another assay is T1, alpha-1-receptor (Rattus norvegicus, UniProt P15823).
T1 construct: rat liver homogenates; from tissue; host or cells: rat liver homogenate
T1 sequence (P15823 1-515): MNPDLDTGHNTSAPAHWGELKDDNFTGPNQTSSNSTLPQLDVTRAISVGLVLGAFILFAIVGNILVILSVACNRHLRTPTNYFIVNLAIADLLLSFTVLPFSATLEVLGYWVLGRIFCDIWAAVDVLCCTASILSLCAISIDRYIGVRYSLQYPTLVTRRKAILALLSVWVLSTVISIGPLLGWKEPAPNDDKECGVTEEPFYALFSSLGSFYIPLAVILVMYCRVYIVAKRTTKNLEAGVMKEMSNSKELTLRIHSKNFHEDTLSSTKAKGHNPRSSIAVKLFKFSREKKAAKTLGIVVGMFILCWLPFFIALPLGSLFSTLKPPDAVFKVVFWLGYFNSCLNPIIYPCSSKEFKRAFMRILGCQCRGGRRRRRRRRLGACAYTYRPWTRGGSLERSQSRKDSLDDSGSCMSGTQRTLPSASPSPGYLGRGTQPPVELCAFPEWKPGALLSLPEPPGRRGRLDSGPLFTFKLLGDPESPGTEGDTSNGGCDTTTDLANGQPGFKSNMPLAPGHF
Nature of the assay: Radioligand binding, alpha-1 adrenoceptor, rat liver homogenates, [3H]-prazosin.
Details: not given
As to the method: as §1
In turn, `COC(=O)[C@H]1[C@H]2C[C@H]3c4[nH]c5ccccc5c4CCN3C[C@H]2CC[C@@H]1O` [Rauwolscine, reference compound] yielded an inhibitory constant (Ki) of 0.392 µM.

The assay is the same for the next values; noted with them: rat liver homogenates, [3H]-prazosin; read-out: Ki alpha-1.
Turning to `COc1ccc2c(c1)CCC2CN1CCC(c2cccc(F)c2)C1` (stereo not drawn) [Example 153, 5-Methoxy-1-(3-(m-fluorophenyl)pyrrolidino-1-methyl) indane hydrochloride], the Ki stood at 0.058 µM. Same read-out and setting: the value for `COc1cccc2c1CCCC2CN1CCC(c2cccs2)C1` (stereo not drawn) [Example 146, hydrochloride] was 0.17 µM; that for `CCOc1ccc2c(c1)CCCC2CN(C)CCc1cccc(N)c1` (stereo not drawn) [Example 69, 1-((N-Methylamino)methyl-N-(2-(m-aminophenyl)ethyl))6-ethoxy tetralin dihydrochloride] was 1.27 µM.

Turning to `COc1ccc2c(c1)CCCC2CN(C)CCC1CCCS1` (stereo not drawn) [Example 6h, 1-((N-methylamino)methyl-N-(2-(2-tetrahydrothienyl)ethyl)) 6-methoxy tetralin hydrochloride], the Ki is 1.51 µM.

`COc1ccc2c(c1)CCCC2CN1CCC(c2ccccc2)C1` (stereo not drawn) [Example 121, 6-Methoxy-1-(3-phenylpyrrolidino-1-methyl) tetralin hydrochloride]: the Ki is 0.095 µM. `Fc1ccc2c(c1)CCCC2CN1CCC(c2ccccc2)C1` (stereo not drawn) [Example 148, 6-Fluoro-1-(3-phenylpyrrolidino-1-methyl) tetralin methanesulfonate]: the Ki amounted to 0.126 µM.

On to `COc1ccc(C)c2c1CCCC2CN(C)CCc1cccs1` (stereo not drawn) [Example 36, 1-((N Methylamino)methyl-N-(2-(2-thienyl)ethyl))-5-methoxy-8-methyl tetralin hydrochloride], for which the Ki came out at 0.655 µM. On the same count and under the same terms, to `CN(c1ccc2c(c1)CCCC2CN1CCC(c2ccccc2)C1)S(C)(=O)=O` (stereo not drawn) [Example 193, 6-(N-methylmethylsulfonamido)-1-(3-phenylpyrrolidino-1methyl)tetralin hydrochloride] belongs 0.121 µM; to `CN(CCc1cccc(F)c1)CC1CCCc2c1ccc1c2OCCO1` (stereo not drawn) [Example 167, 1-((N-Methylamino)methyl-N-(2-m-fluorophenethyl))-5,6-ethylenedioxy tetralin methanesulfonate], 0.357 µM.

As for `CN(CCc1cccs1)CC1CCCc2c(Cl)cccc21` (stereo not drawn) [Example 129, 1-((N-Methylamino)methyl-N-(2-(2-thieny)ethyl))5-chloro tetralin hydrochloride], the Ki was 0.198 µM. Still for that read-out and setting: the value for `COc1ccc2c(c1)CCC2CN(C)CCc1cccs1` (stereo not drawn) [Example 37, 1-((N-Methylamino)methyl-N-(2-(2-thienyl)ethyl))-5-methoxy indane hydrochloride] was 0.645 µM; that for `Nc1ccc2c(c1)CCCC2CN1CCC(c2ccccc2)C1` (stereo not drawn) [Example 156, 6-Amino-1-(3-phenylpyrrolidino-1-methyl) tetralin dihydrochloride] was 0.125 µM; that for `CCN(CCc1cccs1)CC1CCCc2c1ccc1c2OCCO1` (stereo not drawn) [Example 168, 1-((N Ethylamino)methyl-N-(2-(2-thienyl)ethyl))-5,6-ethylenedioxy tetralin hydrochloride] was 0.823 µM. As to `CN(CCc1cccs1)CC1CCCc2ccccc21` (stereo not drawn) [Example 22, 1-((N-Methylamino)methyl-N-(2-(2-thienyl)ethyl)) tetralin hydrochloride], the Ki came to 0.695 µM.

Regarding `CN(CCc1cccs1)CC1CCCc2c1ccc1c2OCO1` (stereo not drawn) [Example 23, 1-((N-Methylamino)methyl-N-(2-(2-thienyl)ethyl))-5,6-methylenedioxy tetralin hydrochloride], the Ki is 0.445 µM. Take `COc1cc2c(cc1C)C(CN(C)CCc1ccco1)CCC2` (stereo not drawn) [Example 128, 1-((N-Methylamino)methyl-N-(2-(2-furyl)ethyl))6-methoxy-7-methyl tetralin hydrochloride]: the Ki was found to be 0.855 µM. The same measure, in the same setting: to `COc1ccc2c(c1)CCC2CN1CCC(c2cccs2)C1` (stereo not drawn) [Example 151, 5-Methoxy-1-(3-(2-thienyl)pyrrolidino-1-methyl) indane hydrochloride] belongs 0.177 µM; to `c1ccc(C2CCN(CC3CCCc4c3ccc3c4OCO3)C2)cc1` (stereo not drawn) [Example 143a, 5,6-Methylenedioxy-1-(3-phenylpyrrolidino-1-methyl) tetralin methanesulfonate], 0.051 µM; to `CN(CCc1cccs1)CC1CCCc2c1ccc(O)c2I` (stereo not drawn) [Example 115, 1-((N-Methylamino)methyl-N-(2-(2-thienyl)ethyl))-5-iodo-6-hydroxy tetralin hydrochloride], 0.53 µM.
